How the values were obtained:
[1] = target: T1, human recombinant ETB receptor (Homo sapiens, UniProt P24530); assay: Inhibition of [125I]ET-1 binding to membranes from CHO cells carrying human ETB receptors
T1 construct: expressed in transfected cells; host or cells: CHO cells (microsomal membranes)
T1 sequence (P24530 27-442): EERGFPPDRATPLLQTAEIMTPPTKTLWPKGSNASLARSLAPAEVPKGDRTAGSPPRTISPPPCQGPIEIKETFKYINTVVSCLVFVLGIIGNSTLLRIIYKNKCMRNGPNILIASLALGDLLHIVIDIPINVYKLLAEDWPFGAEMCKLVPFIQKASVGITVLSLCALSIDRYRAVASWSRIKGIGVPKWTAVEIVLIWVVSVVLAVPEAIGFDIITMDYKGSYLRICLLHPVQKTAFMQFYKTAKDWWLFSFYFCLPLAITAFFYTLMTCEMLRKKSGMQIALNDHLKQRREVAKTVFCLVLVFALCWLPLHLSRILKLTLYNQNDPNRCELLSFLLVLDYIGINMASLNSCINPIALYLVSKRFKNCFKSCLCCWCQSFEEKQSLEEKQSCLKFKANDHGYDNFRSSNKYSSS

[2] = target: T2, human recombinant ETA receptor (Homo sapiens, UniProt P25101); assay: Inhibition of [125I]ET-1 binding to membranes from CHO cells carrying human ETA receptors
T2 construct: expressed in transfected cells; host or cells: CHO cells (microsomal membranes)
T2 sequence (P25101 21-427): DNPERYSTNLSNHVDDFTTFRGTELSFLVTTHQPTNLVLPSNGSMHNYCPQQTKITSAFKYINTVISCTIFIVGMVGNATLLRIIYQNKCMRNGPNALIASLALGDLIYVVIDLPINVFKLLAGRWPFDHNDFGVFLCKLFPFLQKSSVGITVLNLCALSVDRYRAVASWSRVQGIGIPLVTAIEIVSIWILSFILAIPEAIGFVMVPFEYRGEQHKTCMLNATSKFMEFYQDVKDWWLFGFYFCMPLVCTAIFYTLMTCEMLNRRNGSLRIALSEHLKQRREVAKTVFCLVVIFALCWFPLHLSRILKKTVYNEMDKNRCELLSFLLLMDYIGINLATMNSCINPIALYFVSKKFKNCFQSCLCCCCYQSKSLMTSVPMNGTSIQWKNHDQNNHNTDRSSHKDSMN

| Structure (SMILES) | IC50 [1] | IC50 [2] |
| --- | --- | --- |
| COc1ccccc1Oc1c(NS(=O)(=O)Nc2ccc(C(C)C)cc2)nc(-c2ccncc2)nc1OC [Example 1, 4-i-propyl-phenyl sulfamic acid-[6-methoxy-5-(o-methoxyphenoxy)-2-(4-pyridyl)-pyrimidin-4-yl]-amide] | 8430 nM | 721 nM |
| C=CCOc1nc(-c2ccncc2)nc(NS(=O)(=O)Nc2ccc(C(C)C)cc2)c1Oc1ccccc1OC [Example 2, 4-i-propyl-phenyl sulfamic acid-[6-allyloxy-5-(o-methoxyphenoxy)-2-(4-pyridyl)-pyrimidin-4-yl]-amide] | 8740 nM | 2190 nM |
| COc1ccccc1Oc1c(NS(=O)(=O)Nc2ccc(C(C)C)cc2)nc(-c2ccncc2)nc1OCCO [Example 3, 4-i-propyl-phenyl sulfamic acid-[6-(2-hydroxy-ethoxy)-5-(o-methoxyphenoxy)-2-(4-pyridyl)-pyrimidin-4-yl]-amide] | 744 nM | 1380 nM |
| COc1ccccc1Oc1c(NS(=O)(=O)Nc2ccc(C(C)C)cc2)nc(-c2ccncc2)nc1OCCOc1ncccn1 [Example 4, 4-i-propyl-phenyl sulfamic acid-[6-[2-(pyrimidin-2-yloxy)-ethoxy]-5-(o-methoxyphenoxy)-2-(4-pyridyl)-pyrimidin-4-yl]-amide] | 680 nM | 96 nM |
| COc1ccccc1Oc1c(NS(=O)(=O)Nc2ccc(C(C)C)cc2)nc(-c2ccncc2)nc1OCCOc1ccc(C(F)(F)F)cn1 [Example 6, 4-i-propyl-phenyl sulfamic acid-[6-[2-(5-trifluoromethyl-pyridin-2-yloxy)-ethoxy]-5-(o-methoxy-phenoxy)-2-(4-pyridyl)-pyrimidin-4-yl]-amide] | 7240 nM | 286 nM |
| CCNS(=O)(=O)Nc1nc(-c2ccncc2)nc(OC)c1Oc1ccccc1OC [Example 7, ethyl sulfamic acid-[6-methoxy-5-(o-methoxy-phenoxy)-2-(4-pyridyl)-pyrimidin-4-yl]-amide] | 9470 nM | 1240 nM |
| COc1ccccc1Oc1c(NS(=O)(=O)Nc2ccc(C)cn2)nc(-c2ccncc2)nc1OC [Example 8, 5-methyl-pyridine-2-sulfamic acid-[6-methoxy-5-(o-methoxy-phenoxy)-2-(4-pyridyl)-4-pyrimidinyl]-amide] | > 10000 nM | 1160 nM |
| COc1ccccc1Oc1c(NS(=O)(=O)Nc2ccccn2)nc(-c2ccncc2)nc1OC [Example 9, pyridine-2-sulfamic acid-[6-methoxy-5-(o-methoxyphenoxy)-2-(4-pyridyl)-4-pyrimidinyl]-amide] | > 10000 nM | 3630 nM |
| COc1ccccc1Oc1c(NS(=O)(=O)Nc2ccc(C(C)(C)C)cc2)nc(-c2ccncc2)nc1OCCO [Example 10, 4-t-butyl-phenyl sulfamic acid-[6-(2-hydroxy-ethoxy)-5-(o-methoxy-phenoxy)-2-(4-pyridyl)-4-pyrimidinyl]-amide] | 193 nM | 2870 nM |
| Cc1ccc(NS(=O)(=O)Nc2ncnc(OCCOc3ncc(Br)cn3)c2-c2ccc(C)cc2)cc1 [Example 12, 4-methyl-phenyl sulfamic acid-[6-[2-(5-bromo-pyrimidin-2-yloxy)-ethoxy]-5-(p-tolyl)-4-pyrimidinyl]-amide] | > 10000 nM | 59 nM |
| COc1cnc(OCCOc2ncnc(NS(=O)(=O)NCc3ccccc3)c2-c2ccc(Cl)cc2)nc1 [Example 15] | 2160 nM | 18.5 nM |
| Cc1cnc(OCCOc2ncnc(NS(=O)(=O)NCc3ccccc3)c2-c2ccc(Cl)cc2)nc1 [Example 16] | 8450 nM | 45 nM |
| COc1cnc(OCCOc2ncnc(NS(=O)(=O)NCc3cccs3)c2-c2ccc(Cl)cc2)nc1 [Example 21] | 1000 nM | 7 nM |
| O=S(=O)(NCc1cccs1)Nc1ncnc(OCCOc2ccc(C(F)(F)F)cn2)c1-c1ccc(Cl)cc1 [Example 22] | 434 nM | 12 nM |
| O=S(=O)(NCc1ccccc1)Nc1nc(-c2ncccn2)nc(OCCOc2ncc(Br)cn2)c1-c1ccccc1 [Example 26] | > 10000 nM | 54 nM |
| CCc1ccc(-c2c(NS(=O)(=O)NCc3ccccc3)ncnc2OCCOc2ncc(Br)cn2)cc1 [Example 29] | – | 13.5 nM |
| Cc1ccc(-c2c(NS(=O)(=O)NCc3ccccc3)nc(-c3ccncc3)nc2OCCOC(=O)Nc2ccccn2)cc1 [Example 34] | 3270 nM | 23 nM |
| COc1ccccc1Oc1c(NS(=O)(=O)NCc2ccccc2)nc(-c2ncccn2)nc1OCCOc1ncccn1 [Example 39] | 524 nM | 32.7 nM |
| COc1ccccc1Oc1c(NS(=O)(=O)NCc2ccccc2)nc(-c2ncccn2)nc1OCCOC(=O)Nc1ccccc1 [Example 43] | 214 nM | 6.8 nM |
| COc1ccccc1Oc1c(NS(=O)(=O)NCc2ccc(Cl)cc2)nc(-c2ncccn2)nc1OCCOc1ncc(Br)cn1 [Example 56] | 164 nM | 6.9 nM |
| COc1ccccc1Oc1c(NS(=O)(=O)NCc2ccccc2)nc(-c2cnccn2)nc1OCCOc1ncc(Br)cn1 [Example 71] | – | 23.6 nM |
| COc1ccccc1Oc1c(NS(=O)(=O)NCc2ccccc2)nc(C2CC2)nc1OCCOc1ncc(Br)cn1 [Example 88] | – | 16 nM |
| CCNS(=O)(=O)Nc1nc(-c2ncccn2)nc(OCCOc2ncc(Br)cn2)c1Oc1ccccc1OC [Example 184] | – | 29.5 nM |
| COc1ccccc1Oc1c(NS(=O)(=O)N(C)Cc2ccccc2)nc(-c2ncccn2)nc1OCCOc1ncc(Br)cn1 [Example 187] | – | 9.8 nM |

These reach a lower IC50 [2]. Values come first.

| IC50 [1] | IC50 [2] | Structure (SMILES) |
| --- | --- | --- |
| – | 6.3 nM | COc1ccccc1Oc1c(NS(=O)(=O)NCc2ccccc2)ncnc1OCCOc1ncc(Br)cn1 [Example 96] |
| 124 nM | 5.6 nM | COc1cnc(OCCOc2nc(-c3ncccn3)nc(NS(=O)(=O)NCc3ccco3)c2Oc2ccccc2OC)nc1 [Example 59] |
| 80 nM | 5.2 nM | COc1cnc(OCCOc2nc(-c3ncccn3)nc(NS(=O)(=O)NCc3ccc(Cl)cc3)c2Oc2ccccc2OC)nc1 [Example 55] |
| 35.8 nM | 4.9 nM | COc1ccccc1Oc1c(NS(=O)(=O)NCc2ccc(Cl)cc2)nc(-c2ncccn2)nc1OCCOC(=O)Nc1ccccn1 [Example 57] |
| – | 4.4 nM | O=S(=O)(Nc1ncnc(OCCOc2ncc(Br)cn2)c1-c1ccc(Br)cc1)NC1CC1 [Example 196] |
| 609 nM | 3.7 nM | CSc1cnc(OCCOc2nc(-c3ccncc3)nc(NS(=O)(=O)NCc3ccccc3)c2-c2ccc(C)cc2)nc1 [Example 33] |
| 1590 nM | 3.6 nM | COc1cnc(OCCOc2ncnc(NS(=O)(=O)NCc3ccco3)c2-c2ccc(Cl)cc2)nc1 [Example 23] |
| 146 nM | 3.5 nM | COc1ccccc1Oc1c(NS(=O)(=O)NCc2ccccc2)nc(-c2ncccn2)nc1OCCOC(=O)Nc1cnccn1 [Example 42] |
| 232 nM | 3.4 nM | COc1ccccc1Oc1c(NS(=O)(=O)NCc2ccco2)nc(-c2ncccn2)nc1OCCOc1ncc(Br)cn1 [Example 60] |
| – | 3.1 nM | COc1ccc(Cl)c(Oc2c(NS(=O)(=O)NCc3ccccc3)ncnc2OCCOc2ncc(Br)cn2)c1 [Example 212, Benzylsulfamic acid [6-[2-(5-bromo-pyrimidin-2-yloxy)-ethoxy]-5-(2-chloro-5-methoxy-phenoxy)-pyrimidin-4-yl]-amide] |
| 2500 nM | 2.2 nM | O=S(=O)(NCc1ccco1)Nc1ncnc(OCCOc2ncc(Br)cn2)c1-c1ccc(Cl)cc1 [Example 24] |
| – | 1.9 nM | COc1ccccc1Oc1c(NS(=O)(=O)NCc2ccccc2)nc(-c2ccncc2)nc1OCCOc1ncc(Br)cn1 [Example 73] |
| 164 nM | 1.8 nM | COc1ccccc1Oc1c(NS(=O)(=O)NCc2ccccc2)nc(-c2ccncc2)nc1OCCOc1ncc(SC)cn1 [Example 74] |
| 200 nM | 1.6 nM | COc1ccccc1Oc1c(NS(=O)(=O)NCc2ccco2)nc(-c2ncccn2)nc1OCCOC(=O)Nc1cnccn1 [Example 61] |
| 46.6 nM | 1.46 nM | COc1ccc(CNS(=O)(=O)Nc2nc(-c3ncccn3)nc(OCCOc3ncc(Br)cn3)c2Oc2ccccc2OC)cc1 [Example 48] |
| – | 1.03 nM | COc1ccccc1Oc1c(NS(=O)(=O)NCc2ccccc2)nc(N2CCOCC2)nc1OCCOc1ncc(Br)cn1 [Example 206, Benzylsulfamic acid [6-[2-(5-bromo-pyrimidin-2-yloxy)-ethoxy]-5-(2-methoxy-phenoxy)-2-morpholin-4-yl-pyrimidin-4-yl]-amide] |
| – | 0.88 nM | CCNS(=O)(=O)Nc1ncnc(OCCOc2ncc(Br)cn2)c1-c1ccc(Br)cc1 [Example 104] |
| 7.5 nM | 0.87 nM | COc1ccc(CNS(=O)(=O)Nc2nc(-c3ncccn3)nc(OCCOC(=O)Nc3ccccn3)c2Oc2ccccc2OC)cc1 [Example 50] |
| 25.4 nM | 0.82 nM | COc1ccc(CNS(=O)(=O)Nc2nc(-c3ncccn3)nc(OCCOc3ncc(OC)cn3)c2Oc2ccccc2OC)cc1 [Example 49] |

— US7094781B2, “Sulfamides and their use as endothelin receptor antagonists” (Actelion Pharmaceuticals Ltd., priority 2000, dated 2006)
